Data as given in US20100279990A1, “ANTIPROLIFERATIVE COMPOUNDS, COMPOSITIONS AND METHODS OF USE” (RAMOT AT TEL-AVIV UNIVERSITY LTD., priority 2006, published 2010).

Columns and labels:
[1] = tested on: PRXF DU145; experiment: Monolayer Assay, PI: PRXF DU145 (Prostate); format: cell-based, human
Text: (§1) This example illustrates cell proliferation data in the form of IC50, IC70 and IC90 values obtained by exposure of human cancer cell-lines to compound (Ia). […].

[2] = tested on: MEXF 394NL; experiment: Monolayer Assay, PI: MEXF 394NL (Melanoma); format: cell-based, human
Text: as §1

[3] = tested on: LXF 629L; experiment: Monolayer Assay, PI: LXF 629L (Lung); format: cell-based, human
Text: as §1

[4] = tested on: LXF H460; experiment: Monolayer Assay, PI: LXF H460 (Lung); format: cell-based, human
Text: as §1

[5] = tested on: RXF 1781L; experiment: Monolayer Assay, PI: RXF 1781L (Renal); format: cell-based, human
Text: as §1

[6] = tested on: PRXF PC3M; experiment: Monolayer Assay, PI: PRXF PC3M (Prostate); format: cell-based, human
Text: as §1

[7] = tested on: UXF 1138L; experiment: Monolayer Assay, PI: UXF 1138L (Uterus Body); format: cell-based, human
Text: as §1

[8] = tested on: CEM/C1 cell-lines (camptothecin resistant human T-cell leukemia); experiment: Viability of CEM/C1 cell-line, alamar blue; format: cell-based; conditions: 1-30 μM
Text: This cell-line is a camptothecin (CPT) resistant derivative of the human T-cell leukemia purchased from ATCC (USA). […] The results are depicted in FIG. 14. Each point represents the mean+/−SEM of 4 determinations.

[9] = tested on: human glioma U87 cells; experiment: Viability of human glioma U87 cell-line; format: cell-based; conditions: FIG. 9
[10] = tested on: PHA activated healthy human T cells; experiment: PHA induced proliferation of healthy human lymphocytes, alamar blue; format: cell-based
[11] = tested on: LXF 526L; experiment: Monolayer Assay, PI: LXF 526L (Lung); format: cell-based, human
Text: as §1

[12] = tested on: IFN γ secretion in Con-A activated naive mouse splenocytes; experiment: IFN γ secretion in Con-A activated naive mouse splenocytes; format: cell-based; conditions: FIG. 3B
Text: This example illustrates IFN y secretion data obtained by separately administering different concentrations of compound (Ia), paroxetine, citalopram, and ecitalopram to Con-A activated naive mouse splenocytes. The results are depicted in FIG. 3B.

[13] = tested on: LS1034 human colon MDR carcinoma cells; experiment: Viability of LS1034 human colon MDR carcinoma cells (FIG. 7B); format: cell-based
Text: This example illustrates cell viability obtained by separately administering different concentrations of compound (Ia), sertraline, doxorubicin, cisplatin, fluorouracil (5-FU), methotrexate (MTX), and vincristin to LS1034 human colon MDR carcinoma cells. The results are depicted in FIG. 7B.

[14] = tested on: BXF T24; experiment: Monolayer Assay, PI: BXF T24 (Bladder); format: cell-based, human
Text: as §1

[15] = tested on: LXF 289L; experiment: Monolayer Assay, PI: LXF 289L (Lung); format: cell-based, human
Text: as §1

[16] = tested on: PRXF LNCAP; experiment: Monolayer Assay, PI: PRXF LNCAP (Prostate); format: cell-based, human
Text: as §1

SMILES: CN[C@H]1CC[C@@H](c2ccc(Cl)c(Cl)c2)c2ccc(C#CCCCO)cc21 [compound (Ia), (1S-cis)-4-(3,4-dichlorophenyl)-7-(5-hydroxy-1-pentyn-1-yl)-1,2,3,4-tetrahydro-N-methyl-1-naphthalenamine hydroiodide]
- Test/Control (%) ([1]; 2.3 μg/ml): 94%
- Test/Control activity class ([1]; 2.3 μg/ml): − (− (T/C = 50))
- Test/Control (%) ([1]; 7.5 μg/ml): 4%
- Test/Control activity class ([1]; 7.5 μg/ml): +++ (+++ (T/C < 10))
- Test/Control (%) ([1]; 23. μg/ml): 1%
- Test/Control activity class ([1]; 23. μg/ml): +++ (+++ (T/C < 10))
- Test/Control (%) ([1]; 75. μg/ml): 1%
- Test/Control activity class ([1]; 75. μg/ml): +++ (+++ (T/C < 10))
- Test/Control (%) ([1]; .75 μg/ml): 102%
- Test/Control activity class ([1]; .75 μg/ml): − (− (T/C = 50))
- Test/Control (%) ([2]; 2.3 μg/ml): 59%
- Test/Control activity class ([2]; 2.3 μg/ml): − (− (T/C = 50))
- Test/Control (%) ([2]; 7.5 μg/ml): 3%
- Test/Control activity class ([2]; 7.5 μg/ml): +++ (+++ (T/C < 10))
- Test/Control (%) ([2]; 23. μg/ml): 2%
- Test/Control activity class ([2]; 23. μg/ml): +++ (+++ (T/C < 10))
- Test/Control (%) ([2]; 75. μg/ml): 2%
- Test/Control activity class ([2]; 75. μg/ml): +++ (+++ (T/C < 10))
- Test/Control (%) ([2]; .75 μg/ml): 99%
- Test/Control activity class ([2]; .75 μg/ml): − (− (T/C = 50))
- Test/Control (%) ([3]; 2.3 μg/ml): 94%
- Test/Control activity class ([3]; 2.3 μg/ml): − (− (T/C = 50))
- Test/Control (%) ([3]; 7.5 μg/ml): 4%
- Test/Control activity class ([3]; 7.5 μg/ml): +++ (+++ (T/C < 10))
- Test/Control (%) ([3]; 23. μg/ml): 1%
- Test/Control activity class ([3]; 23. μg/ml): +++ (+++ (T/C < 10))
- Test/Control (%) ([3]; 75. μg/ml): 2%
- Test/Control activity class ([3]; 75. μg/ml): +++ (+++ (T/C < 10))
- Test/Control (%) ([3]; .75 μg/ml): 99%
- Test/Control activity class ([3]; .75 μg/ml): − (− (T/C = 50))
- Test/Control (%) ([4]; 2.3 μg/ml): 95%
- Test/Control activity class ([4]; 2.3 μg/ml): − (− (T/C = 50))
- Test/Control (%) ([4]; 7.5 μg/ml): 2%
- Test/Control activity class ([4]; 7.5 μg/ml): +++ (+++ (T/C < 10))
- Test/Control (%) ([4]; 23. μg/ml): 1%
- Test/Control activity class ([4]; 23. μg/ml): +++ (+++ (T/C < 10))
- Test/Control (%) ([4]; 75. μg/ml): 1%
- Test/Control activity class ([4]; 75. μg/ml): +++ (+++ (T/C < 10))
- Test/Control (%) ([4]; .75 μg/ml): 101%
- Test/Control activity class ([4]; .75 μg/ml): − (− (T/C = 50))
- Test/Control (%) ([5]; 2.3 μg/ml): 76%
- Test/Control activity class ([5]; 2.3 μg/ml): − (− (T/C = 50))
- Test/Control (%) ([5]; 7.5 μg/ml): 4%
- Test/Control activity class ([5]; 7.5 μg/ml): +++ (+++ (T/C < 10))
- Test/Control (%) ([5]; 23. μg/ml): 3%
- Test/Control activity class ([5]; 23. μg/ml): +++ (+++ (T/C < 10))
- Test/Control (%) ([5]; 75. μg/ml): 3%
- Test/Control activity class ([5]; 75. μg/ml): +++ (+++ (T/C < 10))
- Test/Control (%) ([5]; .75 μg/ml): 96%
- Test/Control activity class ([5]; .75 μg/ml): − (− (T/C = 50))
- Test/Control (%) ([6]; 2.3 μg/ml): 91%
- Test/Control activity class ([6]; 2.3 μg/ml): − (− (T/C = 50))
- Test/Control (%) ([6]; 7.5 μg/ml): 4%
- Test/Control activity class ([6]; 7.5 μg/ml): +++ (+++ (T/C < 10))
- Test/Control (%) ([6]; 23. μg/ml): 1%
- Test/Control activity class ([6]; 23. μg/ml): +++ (+++ (T/C < 10))
- Test/Control (%) ([6]; 75. μg/ml): 1%
- Test/Control activity class ([6]; 75. μg/ml): +++ (+++ (T/C < 10))
- Test/Control (%) ([6]; .75 μg/ml): 95%
- Test/Control activity class ([6]; .75 μg/ml): − (− (T/C = 50))
- Test/Control (%) ([7]; 2.3 μg/ml): 103%
- Test/Control activity class ([7]; 2.3 μg/ml): − (− (T/C = 50))
- Test/Control (%) ([7]; 7.5 μg/ml): 3%
- Test/Control activity class ([7]; 7.5 μg/ml): +++ (+++ (T/C < 10))
- Test/Control (%) ([7]; 23. μg/ml): 2%
- Test/Control activity class ([7]; 23. μg/ml): +++ (+++ (T/C < 10))
- Test/Control (%) ([7]; 75. μg/ml): 3%
- Test/Control activity class ([7]; 75. μg/ml): +++ (+++ (T/C < 10))
- Test/Control (%) ([7]; .75 μg/ml): 102%
- Test/Control activity class ([7]; .75 μg/ml): − (− (T/C = 50))
- IC50 [8]: 8.9 µM
- effect on cell viability [9]: inhibit this glioma cell-line in a dose dependant fashion
- efficacy compared with paroxetine [9]: higher efficacy than paroxetine
- potency relative to sertraline [10]: about 3 times
- IC50 ([10]; T-cell, 48 hr, alamar blue): 9.8 µM
- Test/Control (%) ([11]; 2.3 μg/ml): 81%
- Test/Control activity class ([11]; 2.3 μg/ml): − (− (T/C = 50))
- Test/Control (%) ([11]; 7.5 μg/ml): 6%
- Test/Control activity class ([11]; 7.5 μg/ml): +++ (+++ (T/C < 10))
- Test/Control (%) ([11]; 23. μg/ml): 5%
- Test/Control activity class ([11]; 23. μg/ml): +++ (+++ (T/C < 10))
- Test/Control (%) ([11]; 75. μg/ml): 4%
- Test/Control activity class ([11]; 75. μg/ml): +++ (+++ (T/C < 10))
- Test/Control (%) ([11]; .75 μg/ml): 92%
- Test/Control activity class ([11]; .75 μg/ml): − (− (T/C = 50))
- IFN γ secretion inhibitory activity [12]: greater IFN γ secretion inhibitory activity than paroxetine, citalopram, and ecitalopram
- effect on resistant cancer cells [13]: has the ability to suppress resistant cancer cells
- Test/Control (%) ([14]; 2.3 μg/ml): 93%
- Test/Control activity class ([14]; 2.3 μg/ml): − (− (T/C = 50))
- Test/Control (%) ([14]; 7.5 μg/ml): 53%
- Test/Control activity class ([14]; 7.5 μg/ml): − (− (T/C = 50))
- Test/Control (%) ([14]; 23. μg/ml): 2%
- Test/Control activity class ([14]; 23. μg/ml): +++ (+++ (T/C < 10))
- Test/Control (%) ([14]; 75. μg/ml): 2%
- Test/Control activity class ([14]; 75. μg/ml): +++ (+++ (T/C < 10))
- Test/Control (%) ([14]; .75 μg/ml): 88%
- Test/Control activity class ([14]; .75 μg/ml): − (− (T/C = 50))
- Test/Control (%) ([15]; 2.3 μg/ml): 101%
- Test/Control activity class ([15]; 2.3 μg/ml): − (− (T/C = 50))
- Test/Control (%) ([15]; 7.5 μg/ml): 42%
- Test/Control activity class ([15]; 7.5 μg/ml): + (+ (30 <= T/C < 50))
- Test/Control (%) ([15]; 23. μg/ml): 4%
- Test/Control activity class ([15]; 23. μg/ml): +++ (+++ (T/C < 10))
- Test/Control (%) ([15]; 75. μg/ml): 3%
- Test/Control activity class ([15]; 75. μg/ml): +++ (+++ (T/C < 10))
- Test/Control (%) ([15]; .75 μg/ml): 94%
- Test/Control activity class ([15]; .75 μg/ml): − (− (T/C = 50))
- Test/Control (%) ([16]; 2.3 μg/ml): 56%
- Test/Control activity class ([16]; 2.3 μg/ml): − (− (T/C = 50))
- Test/Control (%) ([16]; 7.5 μg/ml): 4%
- Test/Control activity class ([16]; 7.5 μg/ml): +++ (+++ (T/C < 10))
- Test/Control (%) ([16]; 23. μg/ml): 3%
- Test/Control activity class ([16]; 23. μg/ml): +++ (+++ (T/C < 10))
- Test/Control (%) ([16]; 75. μg/ml): 3%
- Test/Control activity class ([16]; 75. μg/ml): +++ (+++ (T/C < 10))
- Test/Control (%) ([16]; .75 μg/ml): 78%
- Test/Control activity class ([16]; .75 μg/ml): − (− (T/C = 50))
